Assay results reported in BindingDB's records for patent US20260028352 (Suzhou Langrui Biopharmaceutical, 2026).

What was measured:
[1] = target: High affinity nerve growth factor receptor NTRK1 [F589L] (UniProt P04629, F589L); experiment: Inhibitory Activity of Compounds Against TRKA and TRKA(F589L) Kinases
Description: (§1) Kinase Assay Process: 1× Kinase buffer was prepared. […] 10 μL of the 2.5× final concentration kinase solution was added to the compound wells and the positive control wells, and 10 μL of 1× Kinase buffer was added to the negative control wells. The plate was centrifuged at 1000 rpm for 30 seconds, vortexed for mixing, and then incubated at room temperature for 10 minutes. A mixture of 5/3× final concentration of ATP and Kinase Substrate 22 was prepared using 1× Kinase buffer. 15 μL of the mixture of the 5/3× final concentration ATP and the substrate was added to initiate the reaction, the 384-well plate was centrifuged at 1000 rpm for 30 seconds, vortexed for mixing, and incubated at room temperature for the required time. 30 μL of the termination solution was added to stop the kinase reaction, the plate was centrifuged at 1000 rpm for 30 seconds, and vortexed for mixing. The conversion rate was measured using the Caliper EZ Reader.

[2] = target: High affinity nerve growth factor receptor (Homo sapiens, UniProt P04629); experiment: as above
Description: as §1

Sequence of High affinity nerve growth factor receptor (P04629 whole entry): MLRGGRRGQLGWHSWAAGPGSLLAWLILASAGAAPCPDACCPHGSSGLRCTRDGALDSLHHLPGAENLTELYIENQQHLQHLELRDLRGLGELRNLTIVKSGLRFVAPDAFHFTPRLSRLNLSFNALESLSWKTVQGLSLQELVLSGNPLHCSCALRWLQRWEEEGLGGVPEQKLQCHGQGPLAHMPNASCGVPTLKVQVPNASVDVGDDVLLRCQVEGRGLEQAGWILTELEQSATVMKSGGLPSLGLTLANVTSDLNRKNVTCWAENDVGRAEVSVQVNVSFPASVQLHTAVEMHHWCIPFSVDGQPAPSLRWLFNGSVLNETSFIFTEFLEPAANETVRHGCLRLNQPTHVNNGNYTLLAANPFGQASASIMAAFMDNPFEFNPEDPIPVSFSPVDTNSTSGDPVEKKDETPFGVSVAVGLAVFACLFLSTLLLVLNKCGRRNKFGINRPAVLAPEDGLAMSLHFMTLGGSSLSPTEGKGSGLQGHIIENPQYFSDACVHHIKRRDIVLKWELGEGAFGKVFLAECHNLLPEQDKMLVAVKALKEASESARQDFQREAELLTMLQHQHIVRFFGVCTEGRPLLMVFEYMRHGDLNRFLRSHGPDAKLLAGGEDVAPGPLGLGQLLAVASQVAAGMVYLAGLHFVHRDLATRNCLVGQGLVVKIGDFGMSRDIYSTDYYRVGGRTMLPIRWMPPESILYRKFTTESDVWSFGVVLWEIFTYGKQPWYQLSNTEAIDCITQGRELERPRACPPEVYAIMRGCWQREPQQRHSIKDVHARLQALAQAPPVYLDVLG
Sequence of High affinity nerve growth factor receptor NTRK1 [F589L] (P04629 33-796 F589L limits assumed): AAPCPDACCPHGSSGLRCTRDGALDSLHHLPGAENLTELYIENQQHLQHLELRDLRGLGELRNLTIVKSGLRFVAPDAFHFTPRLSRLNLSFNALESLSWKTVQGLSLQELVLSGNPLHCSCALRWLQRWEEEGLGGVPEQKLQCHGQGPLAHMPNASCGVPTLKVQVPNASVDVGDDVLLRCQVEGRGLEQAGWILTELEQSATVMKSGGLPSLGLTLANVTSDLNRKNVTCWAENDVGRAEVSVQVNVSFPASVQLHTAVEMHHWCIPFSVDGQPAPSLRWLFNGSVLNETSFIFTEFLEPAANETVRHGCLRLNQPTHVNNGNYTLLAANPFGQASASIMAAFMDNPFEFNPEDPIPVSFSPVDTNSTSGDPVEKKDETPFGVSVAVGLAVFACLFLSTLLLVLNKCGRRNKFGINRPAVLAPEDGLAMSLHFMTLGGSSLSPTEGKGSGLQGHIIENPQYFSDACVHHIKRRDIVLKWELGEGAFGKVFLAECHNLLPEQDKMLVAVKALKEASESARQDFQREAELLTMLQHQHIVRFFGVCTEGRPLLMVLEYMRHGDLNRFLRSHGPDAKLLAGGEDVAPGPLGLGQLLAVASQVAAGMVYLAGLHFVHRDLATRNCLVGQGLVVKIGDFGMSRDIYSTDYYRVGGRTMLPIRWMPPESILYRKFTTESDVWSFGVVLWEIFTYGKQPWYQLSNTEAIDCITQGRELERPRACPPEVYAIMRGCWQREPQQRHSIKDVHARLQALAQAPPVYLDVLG

Compound | IC50 [1] [nM] | IC50 [2] [nM]
C[C@H]1Nc2ccc3ncc(n3n2)-c2cc(ncn2)CCOc2ccccc21 [US20260028352, Example I-32] | < 5 | < 3
C[C@@H]1Cc2ccnc(c2)-c2cnc3ccc(nn23)N[C@H](C)c2cc(F)ccc2O1 [US20260028352, Example I-34] |  | < 3
C[C@@H]1Cc2cc(ncn2)-c2cnc3ccc(nn23)N[C@H](C)c2cc(F)ccc2O1 [US20260028352, Example I-35] | < 5 | < 3
C[C@@H]1Cc2ccnc(c2)-c2cnc3ccc(nn23)N[C@H](C)c2cc(F)cnc2O1 [US20260028352, Example I-36] | < 5 | < 3
C[C@@H]1Cc2ccnc(c2)-c2cnc3ccc(nn23)N2CCC[C@@H]2c2cc(F)ccc2O1 [US20260028352, Example I-37] | < 5 | < 3
C[C@@H]1Cc2ccnc(c2)-c2cnc3ccc(nn23)N2CCC[C@@H]2c2cc(F)cnc2O1 [US20260028352, Example I-38] |  | < 3
C[C@@H]1Cc2ccnc(c2)-c2cnc3ccc(nn23)N2C[C@@H](F)C[C@@H]2c2cc(F)ccc2O1 [US20260028352, Example I-39] | < 5 | < 3
C[C@@H]1Cc2ccnc(c2)-c2cnc3ccc(nn23)N2C[C@@H](F)C[C@@H]2c2cc(F)cnc2O1 [US20260028352, Example I-40] |  | < 3
C[C@H]1Nc2ccc3ncc(n3n2)-c2cc(ccn2)N2CC[C@H](C2)Oc2ccc(F)cc21 [US20260028352, Example I-41] |  | < 3
C[C@H]1Nc2ccc3ncc(n3n2)-c2cc(ccn2)N2CC[C@@H](C2)Oc2ccc(F)cc21 [US20260028352, Example I-42] |  | < 3
C[C@H]1Nc2ccc3ncc(n3n2)-c2cc(ccn2)N2CCC[C@H](C2)Oc2ccc(F)cc21 [US20260028352, Example I-43] |  | < 3
C[C@H]1Nc2ccc3ncc(n3n2)-c2cc(ccn2)N2CCC[C@@H](C2)Oc2ccc(F)cc21 [US20260028352, Example I-44] | < 5 | < 3
Fc1ccc2c(c1)[C@H]1CCCN1c1ccc3ncc(n3n1)-c1cc(ccn1)[C@H]1CCC[C@H]1O2 [US20260028352, Example I-45] | < 5 | < 3
Fc1ccc2c(c1)[C@H]1CCCN1c1ccc3ncc(n3n1)-c1cc(ccn1)[C@@H]1CCC[C@H]1O2 [US20260028352, Example I-46] | < 5 | < 3
Fc1ccc2c(c1)C1(CC1)Nc1ccc3ncc(n3n1)-c1cc(ccn1)CO2 [US20260028352, Example I-47] | < 5 | < 3
CC1(C)Nc2ccc3ncc(n3n2)-c2cc(ccn2)COc2ccc(F)cc21 [US20260028352, Example I-48] |  | < 3
Fc1ccc2c(c1)[C@H]1C[C@H](F)CN1c1ccc3ncc(n3n1)-c1cc(ccn1)CO2 [US20260028352, Example I-50] |  | < 3
Fc1cnc2c(c1)[C@H]1CCCN1c1ccc3ncc(n3n1)-c1cc(ccn1)CO2 [US20260028352, Example I-51] |  | < 3
Fc1cnc2c(c1)[C@H]1C[C@H](F)CN1c1ccc3ncc(n3n1)-c1cc(ncn1)CO2 [US20260028352, Example I-52] | < 5 | < 3
Fc1ccc2c(c1)[C@H]1CCCN1c1ccc3ncc(n3n1)-c1cc(ccn1)CCO2 [US20260028352, Example I-53] |  | < 3
Fc1cnc2c(c1)[C@H]1C[C@H](F)CN1c1ccc3ncc(n3n1)-c1cc(ccn1)CCO2 [US20260028352, Example I-54] |  | < 3
Fc1cnc2c(c1)[C@H]1CCCN1c1ccc3ncc(n3n1)-c1cc(ccn1)CCO2 [US20260028352, Example I-55] |  | < 3
Fc1ccc2c(c1)[C@H]1C[C@H](F)CN1c1ccc3ncc(n3n1)-c1cc(ccn1)CCO2 [US20260028352, Example I-56] |  | < 3
Fc1ccc2c(c1)[C@H]1C[C@H](F)CN1c1ccc3ncc(n3n1)-c1cc(ncn1)CO2 [US20260028352, Example I-58] |  | < 3

Other lines, results leading:

IC50 [1] [nM] | IC50 [2] [nM] | Compound
 | < 3 | Fc1cnc2c(c1)[C@H]1CCCN1c1ccc3ncc(n3n1)-c1cc(ncn1)CO2 [US20260028352, Example I-59]
 | < 3 | Fc1cnc2c(c1)[C@H]1C[C@H](F)CN1c1ccc3ncc(n3n1)-c1cc(ccn1)CO2 [US20260028352, Example I-60]
< 5 | < 3 | Fc1ccc2c(c1)[C@H]1CCCN1c1ccc3ncc(n3n1)-c1nccc(n1)CO2 [US20260028352, Example I-61]
< 5 | < 3 | Fc1cnc2c(c1)[C@H]1C[C@H](F)CN1c1ccc3ncc(n3n1)-c1cc(cnn1)CO2 [US20260028352, Example I-62]
 | < 3 | Fc1cnc2c(c1)[C@H]1CCCN1c1ccc3ncc(n3n1)-c1nccc(n1)CO2 [US20260028352, Example I-63]
 | < 3 | Fc1cnc2c(c1)[C@H]1C[C@H](F)CN1c1ccc3ncc(n3n1)-c1nccc(n1)CO2 [US20260028352, Example I-64]
< 5 | < 3 | Fc1ccc2c(c1)[C@H]1CCCN1c1ccc3ncc(n3n1)-c1cc(cnn1)CO2 [US20260028352, Example I-65]
 | < 3 | Fc1cnc2c(c1)[C@H]1CCCN1c1ccc3ncc(n3n1)-c1cc(cnn1)CO2 [US20260028352, Example I-67]
 | < 3 | Fc1ccc2c(c1)[C@H]1C[C@H](F)CN1c1ccc3ncc(n3n1)-c1cc(cnn1)CO2 [US20260028352, Example I-68]
 | < 3 | Fc1ccc2c(c1)[C@H]1CCCN1c1ccc3ncc(n3n1)-c1cc(ncn1)CO2 [US20260028352, Example I-69]
 | < 3 | Fc1ccc2c(c1)[C@H]1C[C@H](F)CN1c1ccc3ncc(n3n1)-c1cc(ncn1)CCO2 [US20260028352, Example I-70]
 | < 3 | Fc1cnc2c(c1)[C@H]1CCCN1c1ccc3ncc(n3n1)-c1cc(ncn1)CCO2 [US20260028352, Example I-71]
 | < 3 | Fc1cnc2c(c1)[C@H]1C[C@H](F)CN1c1ccc3ncc(n3n1)-c1cc(ncn1)CCO2 [US20260028352, Example I-72]
< 5 | < 3 | C[C@H]1Nc2ccc3ncc(n3n2)-c2cc(ncn2)CCOc2ncc(F)cc21 [US20260028352, Example I-73]
< 5 | < 3 | C[C@H]1Nc2ccc3ncc(n3n2)-c2cc(ncn2)CCOc2ccc(F)cc21 [US20260028352, Example I-74]
 | < 3 | C[C@H]1Nc2ccc3ncc(n3n2)-c2cc(ccn2)CCOc2ncc(F)cc21 [US20260028352, Example I-75]
< 5 | < 3 | C[C@H]1Nc2ccc3ncc(n3n2)-c2cc(ccn2)CCOc2ccc(F)cc21 [US20260028352, Example I-76]

IC50 [1] [nM] | IC50 [2] [nM] | Compound
 | < 3 | C[C@H]1Nc2ccc3ncc(n3n2)-c2cc(ncn2)COc2ncc(F)cc21 [US20260028352, Example I-77]
< 5 | < 3 | C[C@H]1Nc2ccc3ncc(n3n2)-c2cc(ncn2)COc2ccc(F)cc21 [US20260028352, Example I-78]
< 5 | < 3 | C[C@H]1Nc2ccc3ncc(n3n2)-c2cc(cnn2)COc2ncc(F)cc21 [US20260028352, Example I-79]
 | < 3 | C[C@H]1Nc2ccc3ncc(n3n2)-c2nccc(n2)COc2ccc(F)cc21 [US20260028352, Example I-80]
< 5 | < 3 | C[C@H]1Nc2ccc3ncc(n3n2)-c2nccc(n2)COc2ncc(F)cc21 [US20260028352, Example I-81]
< 5 | < 3 | C[C@H]1Nc2ccc3ncc(n3n2)-c2cc(cnn2)COc2ccc(F)cc21 [US20260028352, Example I-82]
 | < 3 | C[C@H]1Nc2ccc3ncc(n3n2)-c2nccc(n2)CCOc2ncc(F)cc21 [US20260028352, Example I-83]
 | < 3 | C[C@H]1Nc2ccc3ncc(n3n2)-c2nccc(n2)CCOc2ccc(F)cc21 [US20260028352, Example I-84]
< 5 | < 3 | Fc1ccc2c(c1)[C@H]1CCCN1c1ccc3ncc(n3n1)-c1cc(cnn1)CCO2 [US20260028352, Example I-85]
 | < 3 | Fc1ccc2c(c1)[C@H]1C[C@H](F)CN1c1ccc3ncc(n3n1)-c1cc(cnn1)CCO2 [US20260028352, Example I-86]
< 5 | < 3 | Fc1cnc2c(c1)[C@H]1CCCN1c1ccc3ncc(n3n1)-c1cc(cnn1)CCO2 [US20260028352, Example I-87]
 | < 3 | Fc1cnc2c(c1)[C@H]1C[C@H](F)CN1c1ccc3ncc(n3n1)-c1cc(cnn1)CCO2 [US20260028352, Example I-88]
 | < 3 | Fc1ccc2c(c1)[C@H]1CCCN1c1ccc3ncc(n3n1)-c1nccc(n1)CCO2 [US20260028352, Example I-92]
 | < 3 | Fc1ccc2c(c1)[C@H]1C[C@H](F)CN1c1ccc3ncc(n3n1)-c1nccc(n1)CCO2 [US20260028352, Example I-93]
 | < 3 | Fc1cnc2c(c1)[C@H]1CCCN1c1ccc3ncc(n3n1)-c1nccc(n1)CCO2 [US20260028352, Example I-94]
< 5 | < 3 | C[C@H]1Cc2ccnc(n2)-c2cnc3ccc(nn23)N2C[C@@H](F)C[C@@H]2c2cc(F)cnc2O1 [US20260028352, Example I-96]
